Here are results for ten molecules from EP0111809A1, “Pyrazolo(4.3-b)(1.4)oxazines, processes for their preparation and their use as medicaments” (Troponwerke GmbH & Co. KG, priority 1982, dated 1984).

Where only a bound is given, the exact number is not on record here.

In one assay the test system is Hyperalgesie. Nature of the assay: Randall-Selitto hyperalgesia test, oral administration. The class given is in vivo. As to conditions: Hemmung der Hyperalgesie nach Randall-Selitto nach oraler Gabe. The text has this:
Die erfindungsgemäßen Verbindungen sind auch in vivo wirksam im Hyperalgesie-Test nach Randall-Selitto, vgl. Tabelle B (Randall, L.O., Selitto, J., Arch. Int. Pharmakodyn, 111, 209-219, 1957).

Assay [1] concerns Lipoxygenase in PMN-Leukozyten. Nature of the assay: Inhibition of lipoxygenase in PMN leukocytes (release of 5-HETE). The class given is cell-based. As to conditions: species (human or rabbit) not given. The text has this: Der Nachweis der lipoxygenasehemmenden Eigenschaften der neuen, erfindungsgemäßen Verbindungen erfolgt analog der Methode von Bailey et al., J. Biol. Chem. 255, 5996, 1980 und nach Blackwell and Flower, Prostaglandins 16, 417, 1978. Bei dieser Testmethode wird der Metabolismus radioaktiv markierter Arachidonsäure an gewaschenen Humanthrombozyten untersucht. Bei diesem in-vitro-Test werden die radioaktiv markierten Metaboliten aus dem Reaktionsansatz extrahiert und dünnschichtchromatographisch getrennt. Das Autoradiogramm wird mit Dünnschichtscanner ausgewertet. Bei diesen Testbedingungen werden die markierten Metaboliten von der nicht umgesetzten Arachidonsäure getrennt und sind anschließend auszuwerten. Die Verteilung der Radioaktivität auf die während der Metabolisierung gebildeten Cyclooxygenaseprodukte Thromboxan B2 (TXB2) und 12-Hydroxy-5.8.10-heptadekatriensäure (HHT) bzw. das Lipoxygenaseprodukt 12-Hydroxy-5.8.11.14-eikosa- tetraensäure (HETE) unter dem Einfluß der Inhibitoren stellt ein Maß für die Hemmung der Enzyme dar.
Analog dem o.a. Test lassen sich die lipoxygenasehemmenden Eigenschaften der neuen, erfindungsgemäßen Verbindungen auch an Leukozyten nachweisen. Die polymorphkernigen Leukozyten des Menschen und des Kaninchens metabolisieren die Arachidonsäure zu 5-Hydroxy-5.8.11.14-eikosatetraensäure (5-HETE) und Leukotrien B4 (5S, 12R-Dihydroxy-6 cis, 8.10 trans, 14 ciseikosatetraensäure). Die Hemmung der Freisetzung von 5-HETE und Leukotrien B4 aus den Leukozyten stellt ein Maß für den lipoxygenasehemmenden Effekt der neuen, erfindungsgemäßen Verbindungen dar (vgl. Tabelle A).
Der Test mit den Humanleukozyten wird nach Borgeat and Samuelsson (J.Biol. Chem. 254, 2643, 1979 und Proc. Natl. Acad. Sci. U.S.A. 76, 2148, 1979), mit Kaninchenleukozyten nach Walker and Parish (Intern. Archs. Allergy Appl. Immun. 66, 83, 1981) durchgeführt.

The test system of another assay is Carrageenanödembildung. Nature of the assay: Carrageenan-induced oedema model, oral administration. The class given is in vivo. The settings on record: Hemmung der Carrageenanödembildung nach oraler Gabe. The text has this:
Die erfindungsgemäßen Verbindungen sind auch in-vivo wirksam. Diese Wirkung wird durch die Messung der Hemmung der Leukozytenmigration nach an sich bekannten Methoden nachgewiesen (vgl. Higgs et al., Biochemical Pharmacology 28, 1959, (1979) und Eur. J. Pharmacol. 66,81 (1981)). Die erfindungsgemäßen Verbindungen reduzieren auch die ödembildung im Carrageenan-Entzündungsmodell, (vgl. Tabelle C) und hemmen die Metastasierung von B-16 Melanom (nach Honn, et.al. Science 212, 1981).

Regarding “2-Methyl-5-phenylpyrazolo[4.3-b][1.4]oxazin [Beispiel 2]”, the “DE50[mg/kg], oral” value in the assay with Hyperalgesie is 0,80 mg/kg; in the assay with Carrageenanödembildung it was 10,3 mg/kg. For the same molecule, in assay [1], the “Minimale Konzentration (mol/l) für die Hemmung der Lipoxygenase in PMN-Leukozyten (5-HETE)” value (“Minimale Konzentration” for short) is on record as 5 . 10^-6 mol/l.
For `CN1c2[nH]ncc2O[C@@H](c2ccccc2)[C@H]1c1ccccc1` (relative stereo) [Beispiel 3, cis-7-Methyl-5,6-diphenylpyrazolo[4.3-b][1.4]oxazin], the “DE50[mg/kg], oral” value in the assay on Hyperalgesie was 1,23 mg/kg; with Carrageenanödembildung it was 12,7 mg/kg. Also, the “Minimale Konzentration” value in assay [1] was 5 . 10^-6 mol/l.
`CN1C=COc2cn[nH]c21` [Beispiel 1, 7-Methylpyrazolo[4.3-b][1.4]oxazin]: the entries for the “DE50[mg/kg], oral” value in the assay with Hyperalgesie and in the assay on Carrageenanödembildung were 19,7 mg/kg and 13,3 mg/kg, respectively. Further, in assay [1], the “Minimale Konzentration” value is given as > 10^-5 mol/l.
The like results for `Cc1n[nH]c2c1OC(c1ccccc1)=C(c1ccccc1)N2C` [Beispiel 4, 3,7-Dimethyl-5,6-diphenylpyrazolo[4.3-b][1.4]oxazin] were, in that order, 7,7 mg/kg, 11,3 mg/kg and 10^-5 mol/l.
On to `CCCc1n[nH]c2c1OC(c1ccccc1)=C(c1ccccc1)N2C` [Beispiel 5, 7-Methyl-3-propyl-5,6-diphenylpyrazolo[4.3-b][1.4]oxazin], for which the “Minimale Konzentration” value in assay [1] is on record as > 10^-5 mol/l. Further, the “DE50[mg/kg], oral” value in the assay with Carrageenanödembildung was 14,2 mg/kg.
The like results for `CC(=O)n1nc(C)c2c1N(C)C(c1ccccc1)=C(c1ccccc1)O2` [Beispiel 6, 1-Acetyl-3,7-dimethyl-5.6-diphenylpyrazolo[4.3-b][1.4]-oxazin] were, in that order, 5 . 10^-6 mol/l and 2,5 mg/kg.
`CC(C)c1n[nH]c2c1OC(c1ccccc1)C(c1ccccc1)N2C` (centres unmarked) [compound 7]: the “Minimale Konzentration” value in assay [1] was 5 . 10^-6 mol/l.
Still for that read-out and setting: under `CN1CCOc2cn(Cc3ccc(Cl)c(Cl)c3)nc21` [compound 8] stands 10^-5 mol/l.
On the same count and under the same terms, under `CN1CC(c2ccccc2)Oc2cn(C)nc21` (centres unmarked) [compound 9] stands 10^-5 mol/l.
Same read-out and setting: the figure for `CN1c2[nH]ncc2OC(c2ccccc2)C1c1ccccc1` (centres unmarked) [compound 10] is 5.10^-6 mol/l.
